# Measured values as given in US11945822B2, “Pyrazolo-triazine and/or pyrazolo-pxrimidine derivatives as selective inhibitor of cyclin dependent kinase” (QURIENT CO., LTD., priority 2018, dated 2024).
# Tested on: H460
# Experiment: Cellular H460 viability assay (CellTiter-Glo, 72 hours)
# Format: cell-based
# Conditions: Homo sapiens, NCI-H460
# Experimental: (§1) All cell lines were routinely tested for mycoplasma.
# (§2) The effect of the CDK7 inhibitor to inhibit the growth of target cancer cells was evaluated through the 72 hours time period of viability assay. Briefly, the candidate cell line ware plated in 96 well plate at the following density of cells respectively. […] DMSO solvent without compound served as a control and final DMSO concentration less than 0.1%. After 72 hours of incubation at 37° C., 5% CO2 incubator, cells were analyzed for the viability using the CellTiter-Glo Luminescent Cell Viability Assay (Promega, Cat #G7570). All viability assays were performed in duplicate and Luminescence was read using an Envision (Perkin Elmer, USA). Data was analyzed using XLfit software.
row,IC50 [nM],SMILES
1,< 1000,CNC(=O)c1cc2cn(-c3ccccc3CNc3nc(N4CCC(N)CC4)nc4c(C(C)C)cnn34)nc2cc1F [Compound 157]
2,< 1000,CC(C)c1cnn2c(NCc3ccccc3-n3cc4cc(C(=O)NC5CC5)ccc4n3)nc(N3CCC(N)CC3)nc12 [Compound 161]
3,< 1000,CC(C)c1cnn2c(NCc3ccccc3-n3cc(N4CCN(C)CC4)cn3)nc(N3CCC(N)CC3)nc12 [Compound 179]

# Tested on: MV4-11
# Experiment: Cellular MV4-11 viability assay (CellTiter-Glo, 72 hours)
# Format: cell-based
# Conditions: Homo sapiens
# Experimental: as §1, §2
row,IC50 [nM],SMILES
1,< 1000,CNC(=O)c1cc2cn(-c3ccccc3CNc3nc(N4CCC(N)CC4)nc4c(C(C)C)cnn34)nc2cc1F [Compound 157]
2,< 1000,CC(C)c1cnn2c(NCc3ccccc3-n3cc4cc(C(=O)NC5CC5)ccc4n3)nc(N3CCC(N)CC3)nc12 [Compound 161]
3,< 1000,CC(C)c1cnn2c(NCc3ccccc3-n3cc(N4CCN(C)CC4)cn3)nc(N3CCC(N)CC3)nc12 [Compound 179]

# Target: T1, CDK5/p25 (Homo sapiens, UniProt Q00535)
# T1 construct: purchased Invitrogen PR8543B
# T1 sequence (Q00535 whole entry): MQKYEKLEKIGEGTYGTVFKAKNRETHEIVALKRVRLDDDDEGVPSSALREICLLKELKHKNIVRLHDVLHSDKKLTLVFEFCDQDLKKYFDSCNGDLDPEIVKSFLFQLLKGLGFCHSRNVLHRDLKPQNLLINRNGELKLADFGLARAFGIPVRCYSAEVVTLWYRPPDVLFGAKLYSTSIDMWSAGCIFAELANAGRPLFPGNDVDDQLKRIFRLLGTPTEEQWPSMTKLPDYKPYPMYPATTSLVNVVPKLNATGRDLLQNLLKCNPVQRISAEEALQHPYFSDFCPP
# T1 sequence (Q15078 99-307 partner limits assumed): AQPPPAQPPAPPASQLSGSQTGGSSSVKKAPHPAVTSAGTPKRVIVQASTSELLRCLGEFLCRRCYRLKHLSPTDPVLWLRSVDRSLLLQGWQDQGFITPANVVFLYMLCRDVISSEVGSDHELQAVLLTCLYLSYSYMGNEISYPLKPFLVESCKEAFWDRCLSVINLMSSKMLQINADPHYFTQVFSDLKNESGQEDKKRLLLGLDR
# Experiment: Enzymatic assay for CDK5 (FRET based LANCE Ultra kinase assay)
# Format: biochemical
# Conditions: read-out: CDK5 enzymatic activity (IC50 range)
# Experimental: (§3) Enzymatic Binding Assay Protocol for CDK1, CDK2, CDK5 and CDK7
# (§4) Inhibition activity of the respective compound on CDK kinase under Km value of ATP was tested in FRET based The LANCE® Ultra kinase assay (Perkin Elmer), which uses a ULight™-labeled peptide substrate and an appropriate Europium-labeled anti-phospho-antibody. Test compounds were made with DMSO solutions, and then 4-fold serial dilutions for 8 doses were prepared using automated liquid handler (POD810, LABCYTE) and 80 nL/well of diluted compound solutions were added into the 384-well plates (Greiner, Cat #784075). And then 68 nM of ULight-MBP peptide (Perkin Elmer, Cat #TRF0109-M) and 5 ul/well of ATP (Sigma, Cat #A7699) were added to the plate. After 1 min centrifugation at 1000 rpm, Purified CDKs/Cyclin complex were added following concentrations respectively. 24 uM for CDK1/Cyclin B (Invitrogen, Cat #PR4768C), 22 uM for CDK2/Cyclin A (Invitrogen, Cat #PV6290), 10 uM for CDK5/p25 (Invitrogen, Cat #PR8543B) and […] for CDK7/Cyclin H/MNAT1 (Invitrogen, Cat #PR6749B) were added to the each corresponding plate for CDK1, CDK2, CDK5 and CDK7. Incubate at 23° C. for 60 min and then Eu-labeled anti-phospho-Myelin Basic Protein (PE, Cat #TRF0201-M) and EDTA (Invitrogen, Cat #15575038) mixture in Lance Detection Buffer (Perkin Elmer, Cat #CR97100) was added in each well. After additional incubation at 23° C. for 60 min, test articles were measured the fluorescence using Envision leader (Perkin Elmer, USA) [Laser as excitation light; […] as the first and the second emission filter]. Data was analyzed using XL Fit software.
row,IC50 [nM],SMILES
1,100 to 1000,CNC(=O)c1cc2cn(-c3ccccc3CNc3nc(N4CCC(N)CC4)nc4c(C(C)C)cnn34)nc2cc1F [Compound 157]
2,100 to 1000,CC(C)c1cnn2c(NCc3ccccc3-n3cc4cc(C(=O)NC5CC5)ccc4n3)nc(N3CCC(N)CC3)nc12 [Compound 161]
3,100 to 1000,CC(C)c1cnn2c(NCc3ccccc3-n3cc(N4CCN(C)CC4)cn3)nc(N3CCC(N)CC3)nc12 [Compound 179]

# Target: T2, CDK1/Cyclin B (Homo sapiens, UniProt P06493)
# T2 construct: purchased Invitrogen PR4768C
# T2 sequence (P06493 whole entry): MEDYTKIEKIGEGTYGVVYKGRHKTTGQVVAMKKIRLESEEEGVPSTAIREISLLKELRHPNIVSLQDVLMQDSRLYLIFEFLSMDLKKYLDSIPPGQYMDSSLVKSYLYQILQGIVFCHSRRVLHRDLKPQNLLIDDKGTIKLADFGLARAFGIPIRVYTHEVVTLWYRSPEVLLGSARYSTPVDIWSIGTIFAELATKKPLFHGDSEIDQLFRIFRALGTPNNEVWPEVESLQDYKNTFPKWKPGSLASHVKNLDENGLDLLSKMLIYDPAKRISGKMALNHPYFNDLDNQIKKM
# T2 sequence (P14635 whole entry partner): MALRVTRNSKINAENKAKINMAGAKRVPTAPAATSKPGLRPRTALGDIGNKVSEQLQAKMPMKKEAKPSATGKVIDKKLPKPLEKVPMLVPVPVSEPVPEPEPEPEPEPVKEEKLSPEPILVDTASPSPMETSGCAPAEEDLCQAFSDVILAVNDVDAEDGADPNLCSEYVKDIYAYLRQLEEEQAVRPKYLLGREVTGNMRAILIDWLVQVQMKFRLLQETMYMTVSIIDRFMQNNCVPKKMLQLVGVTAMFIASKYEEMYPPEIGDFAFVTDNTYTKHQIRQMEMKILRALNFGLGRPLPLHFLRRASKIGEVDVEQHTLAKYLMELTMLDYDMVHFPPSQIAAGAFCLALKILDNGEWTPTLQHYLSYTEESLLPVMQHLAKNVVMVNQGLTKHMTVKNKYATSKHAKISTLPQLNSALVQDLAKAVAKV
# Experiment: Enzymatic assay for CDK1 (FRET based LANCE Ultra kinase assay)
# Format: biochemical
# Conditions: read-out: CDK1 enzymatic activity (IC50 range)
# Experimental: as §3, §4
row,IC50 [nM],SMILES
1,> 1000,CNC(=O)c1cc2cn(-c3ccccc3CNc3nc(N4CCC(N)CC4)nc4c(C(C)C)cnn34)nc2cc1F [Compound 157]
2,100 to 1000,CC(C)c1cnn2c(NCc3ccccc3-n3cc4cc(C(=O)NC5CC5)ccc4n3)nc(N3CCC(N)CC3)nc12 [Compound 161]
3,100 to 1000,CC(C)c1cnn2c(NCc3ccccc3-n3cc(N4CCN(C)CC4)cn3)nc(N3CCC(N)CC3)nc12 [Compound 179]

# Tested on: HCT116
# Experiment: Cellular HCT116 viability assay (CellTiter-Glo, 72 hours)
# Format: cell-based
# Conditions: Homo sapiens, HCT-116
# Experimental: as §1, §2
row,IC50 [nM],SMILES
1,< 1000,CNC(=O)c1cc2cn(-c3ccccc3CNc3nc(N4CCC(N)CC4)nc4c(C(C)C)cnn34)nc2cc1F [Compound 157]
2,< 1000,CC(C)c1cnn2c(NCc3ccccc3-n3cc4cc(C(=O)NC5CC5)ccc4n3)nc(N3CCC(N)CC3)nc12 [Compound 161]
3,< 1000,CC(C)c1cnn2c(NCc3ccccc3-n3cc(N4CCN(C)CC4)cn3)nc(N3CCC(N)CC3)nc12 [Compound 179]

# Target: T3, CDK2/Cyclin A (Homo sapiens, UniProt P24941)
# T3 construct: purchased Invitrogen PV6290
# Experiment: Enzymatic assay for CDK2 (FRET based LANCE Ultra kinase assay)
# Format: biochemical
# Conditions: read-out: CDK2 enzymatic activity (IC50 range)
# Experimental: as §3, §4
row,IC50 [nM],SMILES
1,100 to 1000,CNC(=O)c1cc2cn(-c3ccccc3CNc3nc(N4CCC(N)CC4)nc4c(C(C)C)cnn34)nc2cc1F [Compound 157]
2,100 to 1000,CC(C)c1cnn2c(NCc3ccccc3-n3cc4cc(C(=O)NC5CC5)ccc4n3)nc(N3CCC(N)CC3)nc12 [Compound 161]
3,100 to 1000,CC(C)c1cnn2c(NCc3ccccc3-n3cc(N4CCN(C)CC4)cn3)nc(N3CCC(N)CC3)nc12 [Compound 179]

# Target: T4, CDK7/Cyclin H/MNAT1 (Homo sapiens, UniProt P50613)
# T4 construct: purchased Invitrogen PR6749B
# T4 sequence (P50613 whole entry): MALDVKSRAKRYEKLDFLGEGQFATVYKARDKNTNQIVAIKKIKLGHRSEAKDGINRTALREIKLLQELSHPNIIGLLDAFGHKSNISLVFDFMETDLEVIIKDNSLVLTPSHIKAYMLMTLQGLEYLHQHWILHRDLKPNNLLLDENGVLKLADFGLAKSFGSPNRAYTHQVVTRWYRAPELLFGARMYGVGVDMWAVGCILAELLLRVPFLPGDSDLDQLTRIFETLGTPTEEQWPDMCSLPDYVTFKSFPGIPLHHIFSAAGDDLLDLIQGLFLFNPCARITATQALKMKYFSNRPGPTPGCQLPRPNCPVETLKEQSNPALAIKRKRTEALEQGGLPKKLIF
# T4 sequence (P51946 whole entry partner): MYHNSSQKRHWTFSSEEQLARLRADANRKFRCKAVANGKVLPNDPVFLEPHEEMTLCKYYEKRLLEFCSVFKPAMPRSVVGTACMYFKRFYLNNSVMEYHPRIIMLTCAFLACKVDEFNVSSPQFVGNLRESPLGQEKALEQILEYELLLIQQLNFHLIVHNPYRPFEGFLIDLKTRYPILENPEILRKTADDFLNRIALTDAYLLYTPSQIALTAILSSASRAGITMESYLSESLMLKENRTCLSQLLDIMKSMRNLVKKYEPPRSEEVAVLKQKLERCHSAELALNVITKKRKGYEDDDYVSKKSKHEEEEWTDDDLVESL
# T4 sequence (P51948 whole entry partner): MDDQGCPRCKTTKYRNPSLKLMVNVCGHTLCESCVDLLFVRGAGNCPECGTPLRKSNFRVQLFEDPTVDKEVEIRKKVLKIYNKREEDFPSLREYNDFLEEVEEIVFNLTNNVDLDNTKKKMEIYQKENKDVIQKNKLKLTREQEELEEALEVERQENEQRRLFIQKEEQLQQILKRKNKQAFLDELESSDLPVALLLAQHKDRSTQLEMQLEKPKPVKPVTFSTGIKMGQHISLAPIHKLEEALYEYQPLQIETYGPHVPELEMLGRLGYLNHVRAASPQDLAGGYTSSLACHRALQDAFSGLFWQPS
# Experiment: Enzymatic assay for CDK7 (FRET based LANCE Ultra kinase assay)
# Format: biochemical
# Conditions: CDK7 over CDK1
# Experimental: as §3
# Inhibition activity of the respective compound on CDK kinase under Km value of ATP was tested in FRET based The LANCE® Ultra kinase assay (Perkin Elmer), which uses a ULight™-labeled peptide substrate and an appropriate Europium-labeled anti-phospho-antibody. […] After 1 min centrifugation at 1000 rpm, Purified CDKs/Cyclin complex were added following concentrations respectively. […] Data was analyzed using XL Fit software.
row,CDK1/CDK7: Selectivity of CDK7 inhibition over CDK1 inhibition,SMILES
1,A (A=greater than 200 fold),CNC(=O)c1cc2cn(-c3ccccc3CNc3nc(N4CCC(N)CC4)nc4c(C(C)C)cnn34)nc2cc1F [Compound 157]
2,A (A=greater than 200 fold),CC(C)c1cnn2c(NCc3ccccc3-n3cc4cc(C(=O)NC5CC5)ccc4n3)nc(N3CCC(N)CC3)nc12 [Compound 161]

row,SMILES,CDK1/CDK7: Selectivity of CDK7 inhibition over CDK1 inhibition
1,CC(C)c1cnn2c(NCc3ccccc3-n3cc(N4CCN(C)CC4)cn3)nc(N3CCC(N)CC3)nc12 [Compound 179],"B (B=less than 200 fold, but greater than 20 fold)"

# Same assay, conditions: CDK7 over CDK2
row,SMILES,CDK2/CDK7: Selectivity of CDK7 inhibition over CDK2 inhibition
1,CNC(=O)c1cc2cn(-c3ccccc3CNc3nc(N4CCC(N)CC4)nc4c(C(C)C)cnn34)nc2cc1F [Compound 157],A (A=greater than 200 fold)
2,CC(C)c1cnn2c(NCc3ccccc3-n3cc4cc(C(=O)NC5CC5)ccc4n3)nc(N3CCC(N)CC3)nc12 [Compound 161],"B (B=less than 200 fold, but greater than 20 fold)"
3,CC(C)c1cnn2c(NCc3ccccc3-n3cc(N4CCN(C)CC4)cn3)nc(N3CCC(N)CC3)nc12 [Compound 179],"B (B=less than 200 fold, but greater than 20 fold)"

# Same assay, conditions: CDK7 over CDK5
row,SMILES,CDK5/CDK7: Selectivity of CDK7 inhibition over CDK5 inhibition
1,CNC(=O)c1cc2cn(-c3ccccc3CNc3nc(N4CCC(N)CC4)nc4c(C(C)C)cnn34)nc2cc1F [Compound 157],"B (B=less than 200 fold, but greater than 20 fold)"
2,CC(C)c1cnn2c(NCc3ccccc3-n3cc4cc(C(=O)NC5CC5)ccc4n3)nc(N3CCC(N)CC3)nc12 [Compound 161],"B (B=less than 200 fold, but greater than 20 fold)"
3,CC(C)c1cnn2c(NCc3ccccc3-n3cc(N4CCN(C)CC4)cn3)nc(N3CCC(N)CC3)nc12 [Compound 179],"B (B=less than 200 fold, but greater than 20 fold)"

# Same assay, conditions: read-out: CDK7 enzymatic activity (IC50 range)
row,IC50 [nM],SMILES
1,< 100,CNC(=O)c1cc2cn(-c3ccccc3CNc3nc(N4CCC(N)CC4)nc4c(C(C)C)cnn34)nc2cc1F [Compound 157]
2,< 100,CC(C)c1cnn2c(NCc3ccccc3-n3cc4cc(C(=O)NC5CC5)ccc4n3)nc(N3CCC(N)CC3)nc12 [Compound 161]
3,< 100,CC(C)c1cnn2c(NCc3ccccc3-n3cc(N4CCN(C)CC4)cn3)nc(N3CCC(N)CC3)nc12 [Compound 179]
